Results: US8835410B2, “Treatment of eyelid dermatitis” (Bodor Laboratories, Inc., priority 2011, dated 2014)
“Also recorded” adds a separate entry of the source. Marks after values point to notes of the source that are not given here.

Tests used:
[1] = Stability of LE in aqueous suspension with or without Δ^1-cortienic acid at room temperature (HPLC); format: physicochemical; conditions: for k: 421 days
Experimental: To investigate the effect of Δ^1-cortienic acid (Δ^1-CA) on the stability of loteprednol etabonate (LE), the following experiments were conducted at room temperature (22.5° C.):
Inactives: Δ^1-CA, 0.1% (2.897 mM) & 0.2% (5.795 mM); Glycerin, Povidone, Tyloxapol, Edetate Disodium Dihydrate, Purified Water.
Preservative added: Benzalkonium Chloride 0.01%
• 1) To the mixture of 9.32 g glycerin (USP, 99.7%), 7.2 g Povidone (USP, 90000), 1.2 g Tyloxapol (USP), 0.08 g benzalkonium chloride (USP, […] of 50% solution), and 0.04 g Edetate Disodium Dihydrate (USP), 400 ml Purified Water (USP) was added. 2) The mixture was sonicated for 20 minutes to make a homogenous solution, and its pH was measured. 3) To 150 ml of each solution was added 0.15 g or 0.3 g of loteprednol etabonate (micronized), and the mixture was sonicated for 30 minutes to obtain two LE-only suspensions at 0.1% & 0.2%, respectively. 4) From each LE-only suspension (0.1 & 0.2%), 75 ml was taken and combined with micronized Δ^1-CA (0.075 & 0.15 g). 5) All four suspensions were mixed and sonicated again for another 30 minutes, and the pH of each was measured (Blank vehicle pH 3.4; LE only suspensions, pH 3.5; LE+Δ^1-CA suspensions, pH 3.3). 6) Each of the four suspensions was separated/pipetted (1 ml) into 8 ml amber vials (1 ml/vial) and the vials were sealed with caps and parafilm. 7) Half of each formula 1 ml/vial samples were loaded on a shaker for continuous shaking (170 times/min), and the other half of the samples were only shaken vigorously by hand each time before HPLC sample preparation. 8) For periodical samplings, one sample of every set of suspensions was taken and analyzed by HPLC. 9) All procedures were conducted at 22.5° C. Sample Preparation
The change of LE and its degradation products AE (acid etabonate) and Δ^1-CA in the suspensions was measured periodically. A vial of each series of suspensions was randomly taken, mixed/washed with 50% acetonitrile, and transferred to a 10 ml cylinder to make a final volume of 10 ml solution (about 100 μg/ml for LE 0.1% or 200 μg/ml for LE 0.2% samples).
A HPLC system operating at ambient temperature was used to quantitative determination of LE, AE and Δ^1-CA. Phenonemax Luna C18 (5μ, 150×4.6 mm) was connected to a Spectra-Physics component system consisting of a SP 8810 precision isocratic pump, a Rheodyne 7125 injector (injection volume 20 μl), a SP 8450 UV/VIS variable wavelength detector (operated at 254 nm), and a SP 4290 integrator. At a flow rate of 1 ml/min, a mobile phase consisting of acetonitrile, acetic acid, and water in a volume ratio of 60:0.2:40 eluted LE, AE and Δ^1-CA at 7.5, 3.2, and 2.2 min, respectively. Each sample was run in triplicate. The change in peak-area was recorded, and the percent ratio of each compound (LE, AE, and Δ^1-CA) toward total (LE+AE+Δ^1-CA) in peak-area was used to evaluate the disappearance of LE as well as the appearance of AE and Δ^1-CA. Since Δ^1-CA was used as an additive for LE+Δ^1-CA samples, the appearance of Δ^1-CA (from AE) was in the error range of these samples, and furthermore, in the LE-only samples, Δ^1-CA was observed from zero-time at 0.36±0.19% of total (LE+AE+Δ^1-CA), and less than, or about 0.5% thereafter in all LE-only samples; the number 0.5% was used as the amount of Δ^1-CA for all of LE+Δ^1-CA samples.

[2] = system: Sprague-Dawley rats; assay: Effect of steroid ointments on skin atrophy and thymus weight in rats; format: in vivo, rat; conditions: for PERCENT DECREASE IN SKIN THICKNESS / PERCENT DECREASE IN THYMUS WEIGHT: ointment on shaved dorsal skin, vs controls; for effect on thymus weight (in words) / skin atrophy (in words): topical ointment
Experimental: To investigate the effects of loteprednol etabonate (LE) on skin atrophy and thymus weight, the following experiments were conducted: Loteprednol etabonate (LE) and betamethasone valerate (BMV) were formulated by Otsuka Pharmaceuticals at a concentation of 0.1% in a white petrolatum base containing 5% propylene carbonate. All other test materials were steroidal anti-inflammatory compounds [Locoid® or hydrocortisone 17-butyrate (HCB) and Rinderon® or betamethasone 17-valerate (BMV-R) or white petrolatum vehicle as a control] which were commercially available in Japan at the time of testing. Sprague-Dawley rats were used in this study. All animals were from the animal research facilities of Otsuka Pharmaceutical Co. Ltd., Tokushima, Japan and all animal care and housing were according to their standard procedures. Groups of male rats (Sprague Dawley) weighing about 200-240 g were shaved on the dorsal surface. Loteprednol etabonate and betamethasone 17-valerate were administered as 0.1% ointments using white petrolatum base containing 5% propylene carbonate (PC). In separate groups, 0.12% betamethasone 17-valerate (Rinderon®), 0.1% hydrocortisone 17-butyrate (Locoid®) were administered as comparators. White petrolatum base (+5% PC) was administered to control animals. Two schedules of dosing were used: 200 mg/rat for 14 days (n=5) or 400 mg/rat for 7 days (n=7). At the end of these periods, rats were sacrificed. The thickness of a 1 cm^2 section of skin from the treated area was measured. The thymus was removed and weighed.

[3] = system: patient with necrobiosis; assay: Topical treatment of a patient with necrobiosis; format: in vivo, human; conditions: LE as 0.5% cream of Example 2
Excerpt: Further confirmation has been found in a patient with necrobiosis.

[4] = system: hairless mice; assay: Multi-week topical (photocarcinogenicity) study of loteprednol etabonate cream in hairless mice, with or without simulated sunlight; skinfold thickness; format: in vivo, mouse
Experimental: To investigate photocarcinogenicity, a multi-week study of loteprednol etabonate cream in hairless mice, with or without simulated sunlight, was undertaken. […] Because effects on skin atrophy were also recorded, however, and because a period of 4 weeks is the maximum recommended treatment period for eyelid dermatitis, results for the first 4 weeks of the study are given below. Mice were treated with the cream formulation once daily, five days per week. In the portion of the test summarized below, the cream contained LE in amounts of 0, 0.25% by weight and 0.5% by weight. (Higher concentrations were tested but results are not given here). Week 0 was baseline. After 4 weeks, skin thickness measurements were taken using a caliper. The cream also contained glycerin 99% USP, benzyl alcohol NF, purified water USP, carbomer 940 NF (Carbopol 980), glyceryl stearate/PEG 100 stearate, trolamine 99F, cetyl alcohol NF, stearyl alcohol NF, white petrolatum USP, light mineral oil NF and dimethicone (50 cst).

[5] = clinical trials, compared to prednisolone; cited from earlier work
[6] = anti-inflammatory activity; cited from earlier work
[7] = LE 0.1% + Δ^1-CA 0.1% suspension, 22.5° C.
[8] = LE 0.1% suspension, no Δ^1-CA, 22.5° C.
[9] = LE 0.2% + Δ^1-CA 0.2% suspension, 22.5° C.
[10] = LE 0.2% suspension, no Δ^1-CA, 22.5° C.
[11] = regimens of Table 2, listed as loteprednol etabonate

Row | PERCENT DECREASE IN SKIN THICKNESS ([2]; 200 mg/day - 14 d) | PERCENT DECREASE IN THYMUS WEIGHT ([2]; 200 mg/day - 14 d) | effect on thymus weight (in words) ([2]; regimens of Table 2) | PERCENT DECREASE IN SKIN THICKNESS ([2]; 400 mg/day - 7 d) | PERCENT DECREASE IN THYMUS WEIGHT ([2]; 400 mg/day - 7 d) | SMILES | skin atrophy (in words) ([2]; regimens of Table 2) | effect on inflammation / necrobiosis [3] | skin atrophy (skin thinning) [3] | further results
1 | – | – | – | – | – | CCOC(=O)OC1(C(=O)O)CC[C@H]2[C@@H]3CCC4=CC(=O)C=C[C@]4(C)[C@H]3C(O)C[C@@]21C (stereo partly shown) [AE] | – | – | – | stability of degradation product AE in the suspension ([1]; aqueous LE suspensions, 22.5° C.): stable
2 | 12.8* PERCENT | 70.1** PERCENT | significant decreases in thymus weight | – | – | CCCCC(=O)O[C@]1(C(=O)CO)[C@@H](C)C[C@H]2[C@@H]3CCC4=CC(=O)C=C[C@]4(C)[C@@]3(F)[C@@H](O)C[C@@]21C [BMV, betamethasone 17-valerate] | caused skin atrophy | successful in lessening inflammation | thinned the skin | effect on thymus weight (in words) ([2]; regimens of Table 2, listed as Betamethasone valerate): most significant decreases in thymus weight
3 | 17.9* PERCENT | 29.5* PERCENT | significant decreases in thymus weight | 12.8* PERCENT | 36.0** PERCENT | CCCC(=O)O[C@]1(C(=O)CO)CC[C@H]2[C@@H]3CCC4=CC(=O)CC[C@]4(C)[C@H]3[C@@H](O)C[C@@]21C [HCB, hydrocortisone 17-butyrate] | most marked; also recorded: caused skin atrophy | – | – | –

Row | SMILES | PERCENT DECREASE IN SKIN THICKNESS ([2]; 200 mg/day - 14 d) | PERCENT DECREASE IN THYMUS WEIGHT ([2]; 200 mg/day - 14 d) | effect on thymus weight (in words) ([2]; regimens of Table 2) | PERCENT DECREASE IN SKIN THICKNESS ([2]; 400 mg/day - 7 d) | PERCENT DECREASE IN THYMUS WEIGHT ([2]; 400 mg/day - 7 d) | skin atrophy (in words) ([2]; regimens of Table 2) | effect on inflammation / necrobiosis [3] | skin atrophy (skin thinning) [3] | further results
4 | CCOC(=O)O[C@]1(C(=O)OCCl)CC[C@H]2[C@@H]3CCC4=CC(=O)C=C[C@]4(C)[C@H]3[C@@H](O)C[C@@]21C [LE, chloromethyl 17α-ethoxycarbonyloxy-11β-hydroxyandrosta-1,4-dien-3-one-17β-carboxylate] | 6.5% | 12.8% | minimal effects on skin atrophy and thymus weight | 10.3% | −2.5% | minimal effects on skin atrophy and thymus weight | effective in treating the necrobiosis by lessening inflammation | did not cause skin atrophy | t95% [1, 7]: 3.66 year; k [1, 7]: 3.84 day^−1 × 10^−5; t95% [1, 8]: 2.10 year; k [1, 8]: 6.69 day^−1 × 10^−5; t95% [1, 9]: 6.12 year; k [1, 9]: 2.30 day^−1 × 10^−5; t95% [1, 10]: 3.21 year; k [1, 10]: 4.38 day^−1 × 10^−5; stabilization of LE by increase in concentration ([1]; concentration from 0.1% to 0.2%, in either LE-only or LE+Δ^1-CA suspension): more than 1.5 times; stabilization of LE by Δ^1-cortienic acid relative to LE in the absence of the enhancer (increase of half-life) ([1]; same concentration of Δ^1-CA added to LE suspension): between one and one-half and two times; also recorded: almost two times; skin atrophy (in words) ([2]; regimens of Table 2, listed as Loteprednol etabonate): did not cause a statistically significant decrease in skin thickness; effect on thymus weight (in words) [2, 11]: did not effect thymus weight significantly; skin atrophy (in words) [2, 11]: less skin atrophy; skin atrophy (in words) ([4]; 1.5% and 4.5% by weight of LE and/or study extended to week 8 and week 13): more skin atrophy was seen; effect on skin thickness (in words) ([4]; LE at 0.25% and 0.5%, application for four weeks): no or minimal deleterious effect on skin thickness; cataracts [5]: did not elevate intraocular pressure or cause cataracts; elevation of intraocular pressure [5]: did not elevate intraocular pressure; activity relative to hydrocortisone (HC) [6]: approximately 20 times
